Test results as given in patent US9115092B2, “Substituted quinazoline and pyrido-pyrimidine derivatives” (Asana Biosciences, LLC, priority 2010, dated 2015).

What was measured:
PC3 cells = assay: XTT assay for cell viability, PC3 cells; format: cell-based, human; conditions: Homo sapiens, PC-3, cell viability
Experimental: Using a commercial kit from Sigma Aldrich (Catalog #X34251) and following its protocol, PC3 cells in the log phase of growth were employed and seeded at an optimal density of 1000 cell/well on to 96 well plates and incubated for 24 h followed by the addition of compounds of formula (I) in serial dilutions. Compound dilutions were made in DMSO. The cells were incubated with the compounds of formula (I) for 96 h and XTT tetrazolium dye (Sigma, USA) was subsequently added and incubated at 37° C. After the color formation, absorbance was measured at 465 nm in a Spectramax® Gemini spectrophotometer. EC50 values were calculated using a sigmoidal dose response curve fit in GraphPad Prism® v5 software. The tested compounds of formula (I) which caused inhibition of PC3 cell proliferation as determined by this assay protocol are shown in Table 2.

[1] = target: T1, PI3Kα (wild-type), P110/P85α (Homo sapiens, UniProt P42336); assay: PI3 Kinase TR-FRET assay, PI3Kα (wild-type); format: biochemical
T1 construct: made in house; host or cells: SF9 insect cells
Method in brief: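 TR-FRET read-out of PIP3 formation via biotin-PIP3 displacement (665/615 nm ratio) gave IC50 curves. Enzyme: 5 ng wild-type P110/P85α from Sf9 cells, 60 min RT with compound and PIP2 (MgCl2 40 mM, DTT 5 mM), then 30 min RT kinase reaction at 10 μM ATP and 10 μM PIP2.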

mTOR kinase = target: T2, mTOR kinase (Homo sapiens, UniProt P42345); assay: mTOR kinase TR-FRET assay; format: biochemical; conditions: read-out: mTO R
T2 construct: purchased Millipore, USA
Method in brief: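 TR-FRET read-out (340 nm excitation, 615/665 nm emission) of Thr389 phosphorylation of a ULight-labeled p70 S6K peptide (50 nM) by mTOR, 20 μM ATP, 60 min room temperature after 60 min compound preincubation. Buffer HEPES pH 7.5 with MnCl2, EGTA; IC50 by sigmoidal dose-response.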

T1 sequence (P42336 whole entry): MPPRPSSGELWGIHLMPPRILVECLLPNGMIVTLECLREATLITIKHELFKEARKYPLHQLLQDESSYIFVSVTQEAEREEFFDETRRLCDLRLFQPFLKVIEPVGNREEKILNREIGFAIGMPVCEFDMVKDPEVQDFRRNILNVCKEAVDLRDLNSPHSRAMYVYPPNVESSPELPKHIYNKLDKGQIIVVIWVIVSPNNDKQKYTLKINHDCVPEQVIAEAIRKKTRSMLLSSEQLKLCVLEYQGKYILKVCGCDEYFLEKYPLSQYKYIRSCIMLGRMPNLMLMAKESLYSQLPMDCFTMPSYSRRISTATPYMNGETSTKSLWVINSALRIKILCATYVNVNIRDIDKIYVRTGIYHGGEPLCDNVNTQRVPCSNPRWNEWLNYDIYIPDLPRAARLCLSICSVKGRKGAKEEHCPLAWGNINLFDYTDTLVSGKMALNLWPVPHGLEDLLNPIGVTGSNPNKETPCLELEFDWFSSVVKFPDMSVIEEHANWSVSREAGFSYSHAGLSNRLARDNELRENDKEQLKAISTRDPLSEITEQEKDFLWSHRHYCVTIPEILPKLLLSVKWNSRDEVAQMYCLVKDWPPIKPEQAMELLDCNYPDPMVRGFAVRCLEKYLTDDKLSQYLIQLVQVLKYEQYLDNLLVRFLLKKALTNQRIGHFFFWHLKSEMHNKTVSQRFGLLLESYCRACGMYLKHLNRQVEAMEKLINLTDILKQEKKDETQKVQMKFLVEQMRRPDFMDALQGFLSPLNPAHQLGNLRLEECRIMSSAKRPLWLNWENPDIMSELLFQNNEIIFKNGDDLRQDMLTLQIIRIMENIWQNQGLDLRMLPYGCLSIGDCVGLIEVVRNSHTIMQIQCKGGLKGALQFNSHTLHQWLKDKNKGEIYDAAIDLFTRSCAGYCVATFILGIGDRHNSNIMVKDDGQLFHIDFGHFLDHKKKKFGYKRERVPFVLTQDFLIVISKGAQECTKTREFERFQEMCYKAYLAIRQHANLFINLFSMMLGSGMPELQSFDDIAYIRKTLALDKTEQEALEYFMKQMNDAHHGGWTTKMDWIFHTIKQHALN
T1 sequence (P27986 whole entry partner): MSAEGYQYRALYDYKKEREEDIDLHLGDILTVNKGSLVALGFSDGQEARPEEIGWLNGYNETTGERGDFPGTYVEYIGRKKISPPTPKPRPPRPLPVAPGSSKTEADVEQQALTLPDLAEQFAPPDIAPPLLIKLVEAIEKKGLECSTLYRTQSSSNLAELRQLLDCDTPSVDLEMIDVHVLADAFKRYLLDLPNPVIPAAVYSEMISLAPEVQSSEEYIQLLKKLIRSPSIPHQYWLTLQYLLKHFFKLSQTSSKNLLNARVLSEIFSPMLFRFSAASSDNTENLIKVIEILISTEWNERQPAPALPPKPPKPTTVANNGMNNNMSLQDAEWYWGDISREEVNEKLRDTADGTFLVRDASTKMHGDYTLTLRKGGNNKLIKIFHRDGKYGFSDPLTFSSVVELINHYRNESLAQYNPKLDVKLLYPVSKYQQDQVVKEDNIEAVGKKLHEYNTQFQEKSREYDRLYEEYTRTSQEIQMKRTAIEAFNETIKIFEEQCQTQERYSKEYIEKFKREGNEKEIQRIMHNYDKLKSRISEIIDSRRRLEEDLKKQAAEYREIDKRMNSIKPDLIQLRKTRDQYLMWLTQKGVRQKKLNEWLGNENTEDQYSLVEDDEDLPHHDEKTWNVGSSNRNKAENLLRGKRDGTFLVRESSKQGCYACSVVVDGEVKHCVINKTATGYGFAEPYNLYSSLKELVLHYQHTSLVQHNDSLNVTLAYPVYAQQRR

IC50 (PC3 cells) | IC50 [1] | IC50 (mTOR kinase) | Structure (SMILES)
< 100 nM | 50 to 200 nM | < 50 nM | Cc1ccc(-c2ccc3c(N4CCOCC4)nc(-c4ccc(NC(=O)Nc5ccc(C(=O)N6CCC(N(C)C)C6)cc5)cc4)nc3c2)o1 (stereo in doubt) [Example 195, (S)-1-(4-(3-(dimethylamino)pyrrolidine-1-carbonyl)phenyl)-3-(4-(7-(5-methylfuran-2-yl)-4-morpholino-quinazolin-2-yl)phenyl)urea]
201 to 10000 nM | < 50 nM | < 50 nM | NC1CCN(C(=O)c2ccc(NC(=O)Nc3ccc(-c4nc(N5CCOCC5)c5ccc(-c6ccco6)cc5n4)cc3)cc2)C1 (stereo in doubt) [Example 234, (S)-1-(4-(3-aminopyrrolidine-1-carbonyl)phenyl)-3-(4-(7-(furan-2-yl)-4-morpholino-quinazolin-2-yl)phenyl)urea]
< 100 nM | < 50 nM | < 50 nM | CN1CCN(C(=O)c2ccc(NC(=O)Nc3ccc(-c4nc(N5CCOCC5)c5cc(F)c(-c6cccnc6)cc5n4)cc3)cc2)CC1 [Example 4, 1-[4(6-Fluoro-4-morpholin-4-yl-7-pyridin-3-yl-quinazolin-2-yl)-phenyl]-3-[4-(4-methyl-piperazine-1-carbonyl)-phenyl]-urea]
< 100 nM | 50 to 200 nM | < 50 nM | CN(C)C(=O)c1ccc(NC(=O)Nc2ccc(-c3nc(N4CCOCC4)c4cccc(-c5cccc(O)c5)c4n3)cc2)cc1 [Example 5, 4-(3-{4-[8-(3-Hydroxy-phenyl)-4-morpholin-4-yl-quinazolin-2-yl]-phenyl}-ureido)-N,N-dimethyl-benzamide]
100 to 500 nM | 50 to 200 nM | < 50 nM | CN(C)C(=O)c1ccc(NC(=O)Nc2ccc(-c3nc(N4CCOCC4)c4cccc(-c5ccc(F)nc5)c4n3)cc2)cc1 [Example 6, 4-(3-{4-[8-(6-Fluoro-pyridin-3-yl)-4-morpholin-4-yl-quinazolin-2-yl]-phenyl}-ureido)-N,N-dimethyl-benzamide]
< 100 nM | < 50 nM | < 50 nM | CN(C)C(=O)c1ccc(NC(=O)Nc2ccc(-c3nc(N4CCOCC4)c4ncc(-c5cncnc5)cc4n3)cc2)cc1 [Example 9, N,N-Dimethyl-4-{3-[4-(4-morpholin-4-yl-7-pyrimidin-5-yl-pyrido[3,2-d]-pyrimidin-2-yl)-phenyl]-ureido}-benzamide]
100 to 500 nM | 50 to 200 nM | 50 to 200 nM | CC(=O)Nc1ccc(NC(=O)Nc2ccc(-c3nc(N4CCOCC4)c4ccc(-c5ccc(C)o5)cc4n3)cc2)cc1 [Example 17, N-(4-(3-(4-(7-(5-methylfuran-2-yl)-4-morpholino-quinazolin-2-yl)phenyl)ureido)phenyl)acetamide]
100 to 500 nM | 50 to 200 nM | < 50 nM | CN(C)C(=O)c1ccc(NC(=O)Nc2ccc(-c3nc(N4CCOCC4)c4ccc(-c5cccnc5F)cc4n3)cc2)cc1 [Example 21, 4-(3-{4-[7-(2-fluoro-pyridin-3-yl)-4-morpholin-4-yl-quinazolin-2-yl]-phenyl}-ureido)-N,N-dimethyl-benzamide]
501 to 5000 nM | < 50 nM | 50 to 200 nM | CN(C)C(=O)c1ccc(NC(=O)Nc2ccc(-c3nc(N4CCOCC4)c4ccc(-c5cccc(NS(C)(=O)=O)c5)cc4n3)cc2)cc1 [Example 23, 4-(3-{4-[7-(3-methanesulfonylamino-phenyl)-4-morpholin-4-yl-quinazolin-2-yl]-phenyl}-ureido)-N,N-dimethyl-benzamide]
501 to 5000 nM | 50 to 200 nM | 50 to 200 nM | CS(=O)(=O)c1cccc(-c2ccc3c(N4CCOCC4)nc(-c4ccc(NC(=O)Nc5ccc(C(N)=O)cc5)cc4)nc3c2)c1 [Example 25, 4-(3-{4-[7-(3-methanesulfonyl-phenyl)-4-morpholin-4-yl-quinazolin-2-yl]-phenyl}-ureido)-benzamide]
 | < 50 nM | < 50 nM | Cc1ccc(-c2ccc3c(N4CCOCC4)nc(-c4ccc(NC(=O)Nc5ccc(C(=O)N(C)C)cc5)cc4F)nc3c2)cn1 [Example 271, 4-(3-(3-fluoro-4-(7-(6-methylpyridin-3-yl)-4-morpholino-quinazolin-2-yl)phenyl)ureido)-N,N-dimethyl-benzamide]
 | < 50 nM | 50 to 200 nM | Cc1ncccc1-c1ccc2c(N3CCOCC3)nc(-c3ccc(NC(=O)Nc4ccc(C(=O)N(C)C)cc4)cc3F)nc2c1 [Example 272, 4-(3-(3-fluoro-4-(7-(2-methylpyridin-3-yl)-4-morpholino-quinazolin-2-yl)phenyl)ureido)-N,N-dimethyl-benzamide]
 | < 50 nM | < 50 nM | CN(C)C(=O)c1ccc(NC(=O)Nc2ccc(-c3nc(N4CCOCC4)c4ncc(-c5cnn(C)c5)cc4n3)cc2)cc1F [Example 273, 2-fluoro-N,N-dimethyl-4-(3-(4-(7-(1-methyl-1H-pyrazol-4-yl)-4-morpholino-pyrido[3,2-d]pyrimidin-2-yl)phenyl)ureido)-benzamide]
 | 50 to 200 nM | 50 to 200 nM | CN(C)C(=O)c1ccc(NC(=O)Nc2ccc(-c3nc(N4CCOCC4)c4ccc(-c5ccc(C(C)(C)O)o5)cc4n3)c(F)c2)cc1 [Example 276, 4-(3-(3-fluoro-4-(7-(5-(2-hydroxypropan-2-yl)furan-2-yl)-4-morpholino-quinazolin-2-yl)phenyl)ureido)-N,N-dimethyl-benzamide]
 | < 50 nM | < 50 nM | CN(C)C(=O)c1ccc(NC(=O)Nc2ccc(-c3nc(N4CCOCC4)c4ccc(-c5cnc(N(C)C)nc5)cc4n3)c(F)c2)cc1 [Example 277, 4-(3-(4-(7-(2-(dimethylamino)pyrimidin-5-yl)-4-morpholino-quinazolin-2-yl)-3-fluorophenyl)ureido)-N,N-dimethyl-benzamide]
 | < 50 nM | < 50 nM | CN(C)C(=O)c1ccc(NC(=O)Nc2ccc(-c3nc(N4CCOCC4)c4ccc(-c5ccc(CO)o5)cc4n3)cc2)cc1F [Example 278, 2-fluoro-4-(3-(4-(7-(5-(hydroxymethyl)furan-2-yl)-4-morpholino-quinazolin-2-yl)phenyl)ureido)-N,N-dimethyl-benzamide]
 | 50 to 200 nM | 50 to 200 nM | CN(C)C(=O)c1ccc(NC(=O)Nc2cc(F)c(-c3nc(N4CCOCC4)c4ccc(-c5cncnc5)cc4n3)cc2F)cc1 [Example 279, 4-(3-(2,5-difluoro-4-(4-morpholino-7-(pyrimidin-5-yl)quinazolin-2-yl)phenyl)ureido)-N,N-dimethyl-benzamide]
 | 201 to 10000 nM | 201 to 10000 nM | Cc1ccc(-c2ccc3c(N4CCOCC4)nc(-c4ccc(NC(=O)Nc5ccc(C(=O)N(C)C)cc5)c(F)c4F)nc3c2)o1 [Example 281, 4-(3-(2,3-difluoro-4-(7-(5-methylfuran-2-yl)-4-morpholino-quinazolin-2-yl)phenyl)ureido)-N,N-dimethyl-benzamide]
 | 201 to 10000 nM | 50 to 200 nM | CN(C)C(=O)c1ccc(NC(=O)Nc2ccc(-c3nc(N4CCOCC4)c4ccc(CN5CCC(O)CC5)cc4n3)cc2)cc1 [Example 284, 4-(3-(4-(7-((4-hydroxypiperidin-1-yl)methyl)-4-morpholino-quinazolin-2-yl)phenyl)ureido)-N,N-dimethyl-benzamide]
 | 201 to 10000 nM | 201 to 10000 nM | CN(C)C(=O)c1ccc(NC(=O)Nc2ccc(-c3nc(N4CCOCC4)c4ccc(C(=O)N5CCC(N(C)C)CC5)cc4n3)cc2)cc1 [Example 287, 4-(3-(4-(7-(4-(dimethylamino)piperidine-1-carbonyl)-4-morpholino-quinazolin-2-yl)phenyl)ureido)-N,N-dimethyl-benzamide]
 | 50 to 200 nM | < 50 nM | CN(C)[C@@H]1CCN(C(=O)c2ccc(NC(=O)Nc3ccc(-c4nc(N5CCOCC5)c5ccc(C(C)(C)O)cc5n4)cc3)cc2)C1 [Example 288, (R)-1-(4-(3-(dimethylamino)pyrrolidine-1-carbonyl)phenyl)-3-(4-(7-(2-hydroxypropan-2-yl)-4-morpholino-quinazolin-2-yl)phenyl)urea]
 | 50 to 200 nM | < 50 nM | CN(C)C(=O)c1ccc(NC(=O)Nc2ccc(-c3nc(N4CCOCC4)c4ccc(C(C)(C)O)cc4n3)cc2F)cc1 [Example 290, 4-(3-(2-fluoro-4-(7-(2-hydroxypropan-2-yl)-4-morpholino-quinazolin-2-yl)phenyl)ureido)-N,N-dimethyl-benzamide]
 | < 50 nM | < 50 nM | CC(=O)Nc1ccc(NC(=O)Nc2ccc(-c3nc(N4CCOCC4)c4ncc(-c5cccnc5F)cc4n3)cc2)cc1 [Example 293, N-(4-(3-(4-(7-(2-fluoropyridin-3-yl)-4-morpholinopyrido[3,2-d]pyrimidin-2-yl)phenyl)ureido)phenyl) acetamide]
 | < 50 nM | < 50 nM | CC(=O)Nc1ccc(NC(=O)Nc2ccc(-c3nc(N4CCOCC4)c4ncc(-c5cnn(C)c5)cc4n3)cc2)cc1 [Example 294, N-(4-(3-(4-(7-(1-methyl-1H-pyrazol-4-yl)-4-morpholinopyrido[3,2-d]pyrimidin-2-yl)phenyl)ureido)phenyl) acetamide]
